What follows are compounds tested on 3D7 P. falciparum strain (assay: P. falciparum 3D7 parasite proliferation assay (SYBR Green)). Conditions: Plasmodium falciparum, Erythrocyte; 3D7 P. falciparum infected human erythrocytes, 72 hours, SYBR Green fluorescence; read-out: Pf3D7 Activity.
Format: cell-based
Procedure, shortened: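 3D7-infected O+ human erythrocytes (0.3% parasitemia, 2.5% hematocrit) were exposed to compound for 72 hours at 37 °C under 93% N2/4% CO2/3% O2. After overnight lysis with SYBR Green, fluorescence (ex 425/em 530 nm) gave parasite DNA content. EC50 was calculated against DMSO.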
Work on `N[C@H]1CC[C@H](NC(=O)c2cncc(-c3cc4cc(OC(F)(F)F)ccc4[nH]3)n2)CC1` [Example 67, N-((1r,4r)-4-aminocyclohexyl)-6-(5-(trifluoromethoxy)-1H-indol-2-yl)pyrazine-2-carboxamide] yielded an EC50 of over 0.1 µM.
With `Cc1c(-c2cncc(C(=O)NCC(N)CO)n2)[nH]c2ccccc12` (stereo not shown) [Example 94, N-(2-amino-3-hydroxypropyl)-6-(3-methyl-1H-indol-2-yl)pyrazine-2-carboxamide] the EC50 was over 0.1 µM.
`Cc1c(-c2cncc(C(=O)NCCCN)n2)[nH]c2ccc(OC(F)(F)F)cc12` [Example 63, N-(3-aminopropyl)-6-(3-methyl-5-(trifluoromethoxy)-1H-indol-2-yl)pyrazine-2-carboxamide] was tested, and the EC50 was 0.01 to 0.1 µM.
In the case of `CCOC(=O)c1cc2[nH]c(-c3cncc(C(=O)NCC(C)(C)N)n3)c(C)c2s1` [Example 72, Ethyl 5-(6-((2-amino-2-methylpropyl)carbamoyl)pyrazin-2-yl)-6-methyl-4H-thieno[3,2-b]pyrrole-2-carboxylate], the EC50 is reported as under 0.01 µM.
Compound `CC(C)(N)CNC(=O)c1cncc(-c2[nH]c3ccc(OC(F)(F)F)cc3c2Cl)n1` [Example 106, N-(2-Amino-2-methylpropyl)-6-(3-chloro-5-(trifluoromethoxy)-1H-indol-2-yl)pyrazine-2-carboxamide] has an EC50 of under 0.01 µM.
Work on `CC(C)(N)CNC(=O)c1cncc(-c2cc3cnc(Cl)cc3[nH]2)n1` [Example 40, N-(2-amino-2-methylpropyl)-6-(6-chloro-1H-pyrrolo[3,2-c]pyridin-2-yl)pyrazine-2-carboxamide] yielded an EC50 of over 0.1 µM.
Work on `Cc1c(-c2cncc(C(=O)N(C)CC(C)(C)N)n2)[nH]c2ccc(OC(F)(F)F)cc12` [Example 62, N-(2-amino-2-methylpropyl)-N-methyl-6-(3-methyl-5-(trifluoromethoxy)-1H-indol-2-yl)pyrazine-2-carboxamide] yielded an EC50 of 0.01 to 0.1 µM.
`Cc1c(-c2cncc(C(=O)NCC(C)(C)N)n2)[nH]c2cc(OC(F)(F)F)ccc12` [Example 8, N-(2-amino-2-methylpropyl)-6-(3-methyl-6-(trifluoromethoxy)-1H-indol-2-yl)pyrazine-2-carboxamide] was tested, and the EC50 was under 0.01 µM.
`CC(C)(N)CNC(=O)c1cncc(-c2cc3cc(S(F)(F)(F)(F)F)ccc3[nH]2)n1` [Example 46, N-(2-amino-2-methylpropyl)-6-(5-(pentafluoro-λ^6-sulfaneyl)-1H-indol-2-yl)pyrazine-2-carboxamide] gave an EC50 of 0.01 to 0.1 µM.
In the case of `COc1ccc2cc(-c3cncc(C(=O)NCC(C)(C)N)n3)[nH]c2c1` [Example 31, N-(2-amino-2-methylpropyl)-6-(6-methoxy-1H-indol-2-yl)pyrazine-2-carboxamide], the EC50 is reported as over 0.1 µM.
`Cc1c(-c2cncc(C(=O)N[C@H]3CCC[C@@H]3N)n2)[nH]c2cc(Cl)c(F)cc12` [Example 77, N-((1S,2S)-2-Aminocyclopentyl)-6-(6-chloro-5-fluoro-3-methyl-1H-indol-2-yl)pyrazine-2-carboxamide] gave an EC50 of under 0.01 µM.
In the case of `Cc1c(-c2cncc(C(=O)NC3CCNCC3)n2)[nH]c2ccccc12` [Example 93, 6-(3-methyl-1H-indol-2-yl)-N-(piperidin-4-yl)pyrazine-2-carboxamide], the EC50 is reported as over 0.1 µM.
Work on `CC(C)(N)CNC(=O)c1cncc(-c2cc3c(Cl)nccc3[nH]2)n1` [Example 41, N-(2-amino-2-methylpropyl)-6-(4-chloro-1H-pyrrolo[3,2-c]pyridin-2-yl)pyrazine-2-carboxamide] yielded an EC50 of over 0.1 µM.
`Cc1c(-c2cncc(C(=O)NCC(C)(C)N)n2)[nH]c2ccc(Br)cc12` [Example 74, N-(2-Amino-2-methylpropyl)-6-(5-bromo-3-methyl-1H-indol-2-yl)pyrazine-2-carboxamide] showed an EC50 of under 0.01 µM.
`Cc1c(-c2cncc(C(=O)NCC3(N)COC3)n2)[nH]c2ccccc12` [Example 95, N-((3-aminooxetan-3-yl)methyl)-6-(3-methyl-1H-indol-2-yl)pyrazine-2-carboxamide] showed an EC50 of over 0.1 µM.
`Cc1c(-c2cncc(C(=O)NCC(C)(C)N3CCOCC3)n2)[nH]c2ccccc12` [Example 96, 6-(3-Methyl-1H-indol-2-yl)-N-(2-methyl-2-morpholinopropyl)pyrazine-2-carboxamide] showed an EC50 of over 0.1 µM.

From US20250197376A1, “PYRAZINE AMIDE DERIVATIVES” (Novartis AG, priority 2022, published 2025)
